Like-named read-outs stand apart in the source and are kept apart here. Non-standard residues stand in square brackets, D forms with d. Residues, ends and D or L forms follow the SMILES beside them. ξ: configuration not given here. *: point of attachment. Malonyl(2,2-Me2,histaminyl) = CC(C)(C(=O)NCCc1cnc[nH]1)C(=O)*; Ala(1H-tetrazol-5-yl) = N[C@@H](Cc1nnn[nH]1)C(=O)O; ξαMePhe(2-F) = CC(N)(Cc1ccccc1F)C(=O)O; Nle = CCCC[C@H](N)C(=O)O; Aib = CC(C)(N)C(=O)O; Alloc = C=CCOC(=O)*
Assays:
[1] = molecular target: T1, human GLP2 receptor (Homo sapiens, UniProt O95838); test: cAMP accumulation assay (HTRF), functional agonism of human GLP2 receptor in HEK cells; settings: for Emax: HEK293, read-out: Human GLP-2R agonist cAMP Emax;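 on all read-outs here: HEK cells transduced via BacMam to express human GLP2 receptor, agonist-stimulated cAMP measured by HTRF after 45 min at 37 °C in HBSS with 0.5 mM IBMX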
T1 sequence (O95838 1-553): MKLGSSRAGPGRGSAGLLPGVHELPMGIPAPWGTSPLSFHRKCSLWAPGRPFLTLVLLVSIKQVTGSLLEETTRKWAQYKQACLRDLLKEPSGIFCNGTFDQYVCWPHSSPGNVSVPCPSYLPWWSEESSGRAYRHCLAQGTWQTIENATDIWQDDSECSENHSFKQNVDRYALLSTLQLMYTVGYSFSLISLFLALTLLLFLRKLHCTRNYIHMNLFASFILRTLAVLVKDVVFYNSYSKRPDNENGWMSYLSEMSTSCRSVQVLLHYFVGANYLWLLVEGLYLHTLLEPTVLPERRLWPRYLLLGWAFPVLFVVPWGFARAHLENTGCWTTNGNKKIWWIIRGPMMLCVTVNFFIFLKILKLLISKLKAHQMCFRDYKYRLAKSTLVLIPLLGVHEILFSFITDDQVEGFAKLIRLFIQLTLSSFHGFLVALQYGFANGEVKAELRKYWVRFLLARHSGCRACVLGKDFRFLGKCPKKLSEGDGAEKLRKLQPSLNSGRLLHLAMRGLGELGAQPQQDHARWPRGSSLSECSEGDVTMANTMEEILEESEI
Experimental: The functional activity of the peptides were assessed using a HTRF cAMP assay. pEC50 values are quoted.
cAMP production upon agonist stimulation of human GLP2 or GLP1 receptor was assessed utilizing HiRange cAMP kit (Cisbio). In brief, HEK cells were infected with either human GLP2 or GLP1 receptor BacMam virus for 24 hours and frozen for later use in the assay. […] Cells were prepared in the assay buffer (HBSS (Lonza) supplemented with 0.5 mM IBMX (Tocris)). After 45 min incubation at 37° C., the reaction was stopped by addition of the HTRF detection reagents in the lysis buffer provided in the kit.

[2] = molecular target: T2, human GLP1 receptor (Homo sapiens, UniProt P43220); test: cAMP accumulation assay (HTRF), functional agonism of human GLP1 receptor in HEK cells; type: cell-based; settings: for EC50: read-out: Human GLP-1R agonist cAMP pEC50 (converted)
T2 construct: expressed in transfected cells; host or cells: HEK cells, BacMam virus transduction
T2 sequence (P43220 24-463): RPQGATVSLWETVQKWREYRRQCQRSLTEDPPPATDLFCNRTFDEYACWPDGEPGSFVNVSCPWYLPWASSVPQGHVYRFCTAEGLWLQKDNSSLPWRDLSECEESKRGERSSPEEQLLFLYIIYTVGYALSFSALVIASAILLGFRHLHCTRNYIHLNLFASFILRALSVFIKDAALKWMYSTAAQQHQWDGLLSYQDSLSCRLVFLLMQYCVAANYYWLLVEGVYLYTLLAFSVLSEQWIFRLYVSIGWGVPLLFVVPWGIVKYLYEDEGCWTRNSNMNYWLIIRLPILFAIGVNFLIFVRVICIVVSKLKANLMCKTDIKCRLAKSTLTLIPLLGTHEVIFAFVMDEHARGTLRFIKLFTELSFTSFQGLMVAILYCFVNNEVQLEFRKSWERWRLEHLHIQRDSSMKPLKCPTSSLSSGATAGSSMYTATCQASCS

[3] = HEK293, HEK cells, human GLP1 receptor BacMam, 45 min 37° C., read-out: Human GLP-1R agonist cAMP Emax
[4] = HEK293, read-out: Human GLP-1R agonist cAMP Emax
[5] = HEK cells, human GLP1 receptor BacMam, 45 min 37° C.

| Compound | Emax [1] | Emax [2, 3] | Emax [2, 4] | EC50 [1] | EC50 [2, 5] |
| --- | --- | --- | --- | --- | --- |
| C=CCOC(=O)NCCCC[C@H](NC(=O)[C@H](CC(C)C)NC(=O)[C@H](CC(=O)O)NC(=O)[C@H](CC(C)C)NC(=O)[C@@H](NC(=O)[C@@H](NC(=O)[C@@H](Cc1ccccc1)NC(=O)[C@H](CCCC)NC(=O)[C@H](CCC(=O)O)NC(=O)[C@H](CC(=O)O)NC(=O)[C@H](CO)NC(=O)C(C)(Cc1ccccc1F)NC(=O)[C@H](CO)NC(=O)CNC(=O)[C@H](CC(=O)O)NC(=O)C(C)(C)C(=O)NCCc1c[nH]cn1)[C@@H](C)O)[C@@H](C)CC)C(=O)N[C@@H](C)C(=O)N[C@@H](C)C(=O)N[C@@H](CCCCN)C(=O)N[C@@H](CC(=O)O)C(=O)N[C@@H](Cc1ccccc1)C(=O)N[C@H](C(=O)N[C@@H](CC(N)=O)C(=O)N[C@@H](Cc1c[nH]c2ccccc12)C(=O)N[C@@H](CC(C)C)C(=O)N[C@H](C(=O)N[C@@H](CCC(N)=O)C(=O)N[C@H](C(=O)N[C@@H](CCCCN)C(=O)N[C@H](C(=O)N[C@H](C(=O)N[C@@H](CC(=O)O)C(N)=O)[C@@H](C)O)[C@@H](C)CC)[C@@H](C)O)[C@@H](C)CC)[C@@H](C)CC (some centres unmarked) [Example 4] ({Malonyl(2,2-Me2,histaminyl)}-DGS[ξαMePhe(2-F)]SDE[Nle][dF]TILDLK(Alloc)AAKDFINWLIQTKITD-NH2; C-terminus assumed) | 99.3% | 98.1% | – | – | – |
| C=CCOC(=O)NCCCC[C@H](NC(=O)[C@H](CC(C)C)NC(=O)[C@H](CC(=O)O)NC(=O)[C@H](CC(C)C)NC(=O)C(C)(C)NC(=O)[C@@H](NC(=O)[C@@H](Cc1ccccc1)NC(=O)[C@H](CCCC)NC(=O)[C@H](CCC(=O)O)NC(=O)[C@H](CC(=O)O)NC(=O)[C@H](CO)NC(=O)[C@H](Cc1ccccc1)NC(=O)[C@H](CO)NC(=O)CNC(=O)[C@H](Cc1nn[nH]n1)NC(=O)C(C)(C)C(=O)NCCc1c[nH]cn1)[C@@H](C)O)C(=O)N[C@@H](C)C(=O)N[C@@H](C)C(=O)NC(C)(C)C(=O)N[C@@H](CC(=O)O)C(=O)N[C@@H](Cc1ccccc1)C(=O)N[C@H](C(=O)N[C@@H](CC(N)=O)C(=O)N[C@@H](Cc1c[nH]c2ccccc12)C(=O)N[C@@H](CC(C)C)C(=O)N[C@H](C(=O)N[C@@H](CCC(N)=O)C(=O)N[C@H](C(=O)N[C@@H](CCCCN)C(=O)N[C@H](C(=O)N[C@H](C(=O)N[C@@H](Cc1ccccc1)C(N)=O)[C@@H](C)O)[C@@H](C)CC)[C@@H](C)O)[C@@H](C)CC)[C@@H](C)CC [Example 5] ({Malonyl(2,2-Me2,histaminyl)}-[Ala(1H-tetrazol-5-yl)]GSFSDE[Nle][dF]T[Aib]LDLK(Alloc)AA[Aib]DFINWLIQTKITF-NH2) | 103% | – | 93.6% | – | – |
| C=CCOC(=O)NCCCC[C@H](NC(=O)[C@H](C)NC(=O)[C@H](C)NC(=O)[C@H](CCCCNC(=O)OCC=C)NC(=O)[C@H](CC(C)C)NC(=O)[C@H](CC(=O)O)NC(=O)[C@H](CC(C)C)NC(=O)C(C)(C)NC(=O)[C@@H](NC(=O)[C@@H](Cc1ccccc1)NC(=O)[C@H](CCCC)NC(=O)[C@H](CCC(=O)O)NC(=O)[C@H](CC(=O)O)NC(=O)[C@H](CO)NC(=O)[C@H](Cc1ccccc1)NC(=O)[C@H](CO)NC(=O)CNC(=O)[C@H](Cc1nn[nH]n1)NC(=O)C(C)(C)C(=O)NCCc1c[nH]cn1)[C@@H](C)O)C(=O)N[C@@H](CC(=O)O)C(=O)N[C@@H](Cc1ccccc1)C(=O)N[C@H](C(=O)N[C@@H](CC(N)=O)C(=O)N[C@@H](Cc1c[nH]c2ccccc12)C(=O)N[C@@H](CC(C)C)C(=O)N[C@H](C(=O)N[C@@H](CCC(N)=O)C(=O)N[C@H](C(=O)N[C@@H](CCCCN)C(=O)N[C@H](C(=O)N[C@H](C(=O)N[C@@H](Cc1ccccc1)C(N)=O)[C@@H](C)O)[C@@H](C)CC)[C@@H](C)O)[C@@H](C)CC)[C@@H](C)CC [Example 6] ({Malonyl(2,2-Me2,histaminyl)}-[Ala(1H-tetrazol-5-yl)]GSFSDE[Nle][dF]T[Aib]LDLK(Alloc)AAK(Alloc)DFINWLIQTKITF-NH2) | 103% | 96.4% | – | 0.0316 nM | 10 nM |
| C=CCOC(=O)NCCCC[C@H](NC(=O)[C@H](CC(C)C)NC(=O)[C@H](CC(=O)O)NC(=O)[C@H](CC(C)C)NC(=O)C(C)(C)NC(=O)[C@@H](NC(=O)[C@@H](Cc1ccccc1)NC(=O)[C@H](CCCC)NC(=O)[C@H](CCC(=O)O)NC(=O)[C@H](CC(=O)O)NC(=O)[C@H](CO)NC(=O)[C@H](Cc1ccccc1)NC(=O)[C@H](CO)NC(=O)[C@@H](C)NC(=O)[C@H](Cc1nn[nH]n1)NC(=O)C(C)(C)C(=O)NCCc1c[nH]cn1)[C@@H](C)O)C(=O)N[C@@H](C)C(=O)N[C@@H](C)C(=O)NC(C)(C)C(=O)N[C@@H](CC(=O)O)C(=O)N[C@@H](Cc1ccccc1)C(=O)N[C@H](C(=O)N[C@@H](CC(N)=O)C(=O)N[C@@H](Cc1c[nH]c2ccccc12)C(=O)N[C@@H](CC(C)C)C(=O)N[C@H](C(=O)N[C@@H](CCC(N)=O)C(=O)N[C@H](C(=O)N[C@@H](CCCCN)C(=O)N[C@H](C(=O)N[C@H](C(=O)N[C@@H](Cc1ccccc1)C(N)=O)[C@@H](C)O)[C@@H](C)CC)[C@@H](C)O)[C@@H](C)CC)[C@@H](C)CC [Example 7] ({Malonyl(2,2-Me2,histaminyl)}-[Ala(1H-tetrazol-5-yl)][dA]SFSDE[Nle][dF]T[Aib]LDLK(Alloc)AA[Aib]DFINWLIQTKITF-NH2) | 102% | 62.2% | – | 0.01 nM | 39.8 nM |
| C=CCOC(=O)NCCCC[C@H](NC(=O)[C@H](C)NC(=O)C(C)(C)NC(=O)[C@H](CCCCNC(=O)OCC=C)NC(=O)[C@H](CC(N)=O)NC(=O)[C@H](CC(=O)O)NC(=O)[C@H](CC(C)C)NC(=O)C(C)(C)NC(=O)[C@@H](NC(=O)[C@H](CC(N)=O)NC(=O)[C@H](CCCC)NC(=O)[C@H](CCC(=O)O)NC(=O)[C@H](CC(=O)O)NC(=O)[C@H](CO)NC(=O)[C@H](Cc1ccccc1)NC(=O)[C@H](CO)NC(=O)[C@@H](C)NC(=O)[C@H](Cc1nn[nH]n1)NC(=O)C(C)(C)C(=O)NCCc1c[nH]cn1)[C@@H](C)O)C(=O)N[C@@H](CC(=O)O)C(=O)N[C@@H](Cc1ccccc1)C(=O)N[C@H](C(=O)N[C@@H](CC(N)=O)C(=O)N[C@@H](Cc1c[nH]c2ccccc12)C(=O)N[C@@H](CC(C)C)C(=O)N[C@H](C(=O)N[C@@H](CCC(N)=O)C(=O)N[C@H](C(=O)N[C@@H](CCCNC(=N)N)C(=O)N[C@H](C(=O)N[C@H](C(=O)N[C@@H](Cc1ccccc1)C(N)=O)[C@@H](C)O)[C@@H](C)CC)[C@@H](C)O)[C@@H](C)CC)[C@@H](C)CC [Example 8] ({Malonyl(2,2-Me2,histaminyl)}-[Ala(1H-tetrazol-5-yl)][dA]SFSDE[Nle]NT[Aib]LDNK(Alloc)[Aib]AK(Alloc)DFINWLIQTRITF-NH2) | 104% | – | 93.3% | – | – |

Source: patent publication US20230295260A1, “GLP RECEPTOR AGONISTS” (HEPTARES THERAPEUTICS LIMITED, priority 2020, published 2023)
